{"source": "patent US8357653B2", "about": "“System and method for inhibiting cellular proliferation with tachykinins” (priority 2000, dated 2013)", "key": {"[1]": {"tested_on": "Lewis lung carcinoma cells", "assay": "in vivo tumorigenicity model, Lewis lung carcinoma in C57Bl/6 mice, intra-tumor injection", "conditions": "for tumor growth inhibition: Cisplatin group", "method": "The inhibitory action of Sialokinin I and II, SEQ. ID. NO. 1 and NO. 2, against tumor tissue proliferation (Lewis lung carcinoma) was investigated. To test the efficacy of three different concentrations of peptide test articles in an in vivo tumorigenicity model using Lewis lung carcinoma cells.\nLewis lung carcinoma cells were obtained from ATCC and cultured in monolayers in DMEM supplemented with 10% heat-inactivated FBS, 4 mM L-glutamine, 100 μg/ml streptomycin and 100 units/ml penicillin for two passage cycles at 37° C. in 95% air and 5% CO2. Cells were harvested from subconfluent cultures by 60-second exposure to trypsin/EDTA, washed in serum free medium and brought to the correct concentration of cells in PBS.\nOn day 0, 35 female C57Bl/6 mice 6-8 weeks of age were shaved on the right lateral thorax and injected subcutaneously with 1.0×10^6 Lewis lung carcinoma cells. A total of 35 mice were injected so that 25 tumor-bearing mice with the correct tumor size could be used for the study. Tumors were allowed to develop for four days post cell injection at which time biweekly tumor measurements (L×W), in millimeters, were recorded for 3 weeks. […] The data are presented as mean tumor mass plotted over time.\nWhen tumors reached a size of 100-200 mg, 25 mice were selected and randomly sorted into five groups. The five groups of Lewis lung tumor bearing mice were used to test three different test article concentrations.\nThe first group contained animals injected with the test article carrier as a control group. The control animals were injected with 50 μl intra-tumor injections of sterile saline and 1% bovine serum albumin (BSA), three times per week for a total of 5 doses. The control group contained mice that received the vehicle as a negative control.\nThe second group contained animals treated with 6 mg/kg of Cisplatin (Platinol; Bristol-Myers Squibb Co.) as a positive control administered according to manufacture's specifications by intravenous tail vein injection, every fourth day for a total of 3 doses. The Cisplatin group contained mice that received Cisplatin as a positive control.\nThe third group contained animals that received 5 μM of test article dissolved in sterile saline and 1% bovine serum albumin (BSA) injected intra-tumor with 50 μl injections, three times per week for a total of 5 doses.\nThe fourth group contained animals that received 10 μM of test article dissolved in sterile saline and 1% bovine serum albumin (BSA) injected intra-tumor with 50 μl injections, three times per week for a total of 5 doses.\nThe fifth group contained animals that received 100 μM of test article dissolved in sterile saline and 1% bovine serum albumin (BSA) injected intra-tumor with 50 μl injections, three times per week for a total of 5 doses.\nInjections began on the day that animals were randomly sorted into one of five groups. Animals in the control, 5 μM, 10 μM, and 100 μM groups were dosed every other workday with an intra-tumor subcutaneous injection for a total of 5 doses. Tumor size was measured and recorded twice weekly using calipers. Mice were examined twice weekly for morbidity, and any abnormal findings were recorded. When tumors reached a mean target size of 1000 mg in control mice the animals were euthanized and two mice from each group were randomly selected and sent to necropsy for tumor and tissue collection. Mice were photographed before harvesting tumors and major organs (heart, lung, liver, kidney, spleen, GI tract and brain). No mice died while on study."}, "[2]": {"tested_on": "Lewis lung carcinoma cells", "assay": "in vivo tumorigenicity model, Lewis lung carcinoma in immuno-compromised (nu/nu) mice, intravenous injection", "method": "To test the efficacy of different concentrations of the Sialokinin peptides, test articles, SEQ. ID. NO. 1 and NO. 2, in an in vivo tumorigenicity model, a study was conducted with Lewis lung carcinoma in immuno-compromised (nu/nu) mice. Lewis lung carcinoma cells were cultured in Dulbecco's Modified Eagles Medium (DMEM), supplemented with 4 mM L-glutamine, 0.1 mM non-essential amino acids, 10% heat inactivated fetal bovine serum (FBS), […] Gentamicin and 250 μg/ml Fungizone. Cells were cultured in 5% CO2 and 95% air at 37° C. Exponentially growing cells were harvested and washed twice in phosphate buffered saline (PBS) to remove any traces of trypsin or serum. The washed cells were suspended in Hanks Balanced Salt Solution (HBSS) for injection.\nAthymic nude mice were injected subcutaneously in the right lateral thorax with 10^4 Lewis lung carcinoma cells. A total of 38 mice were injected, with 33 tumor-bearing mice used in the study. When tumors reached a target window size of 100-200 mg, 33 tumor-bearing mice were randomly selected and sorted into one of three groups. Group 1 contained mice that received the test article carrier by an IV injection as a negative control. […]\nTumor measurements were recorded three times a week using calipers. […] Clinical observations on each mouse were done twice weekly for signs of toxicity and morbidity and any abnormal findings were recorded. […]"}, "[3]": {"tested_on": "warts", "assay": "human wart trial, subcutaneous injection into the wart", "type": "in vivo", "method": "A trial was conducted to observe the anti-proliferative action of Sialokinins, SEQ. ID. NO. 1 and NO. 2, in the treatment of warts in a human application. This trial, conducted by a dermatologist, involved four volunteer human subjects who received two (2) subcutaneous injections of Sialokinin I and Sialokinin II into the wart. Injections of 100 μl of 5 μM were administered subcutaneously to each volunteer.\nThe warts chosen for this trial had been diagnosed as stable and thus any observable change in the size of the wart to the injections would be significant. […] Of the 3 patients, reductions in size of 19%, 79%, and 31% were observed. When no further treatments were administered, no further reductions were observed."}, "[4]": {"tested_on": "guinea pig ileum", "conditions": "read-out: K0.5; cited from earlier work"}, "[5]": {"tested_on": "spleen cell", "conditions": "25 μg/ml of salivary gland extract, cited from earlier work"}, "[6]": {"tested_on": "ASM cells", "conditions": "cited from earlier work; for proliferative response in ASM cells: dose range of 10^−12 to 10^−6M"}, "[7]": {"conditions": "two 100 μl injections of 5 μM into the wart"}}, "note": "Where “and” joins values, the source holds several entries; their conditions need not be identical. Equal values may be shown once. Read-outs that look alike come from different tables or passages of the source. Ends that are not written are not given here. Peptide text beside a SMILES is read from it.", "data": [{"molecule": "N.N.[Cl][Pt][Cl]", "note": "[Cisplatin]", "values": [{"measurement": "body weight change", "setting": "[1]; 6 mg/kg intravenous", "result": "significant weight loss"}, {"measurement": "growth compared to control tumor growth", "setting": "[1]; 6 mg/kg intravenous, day 7", "result": 58, "unit": "%"}, {"measurement": "growth compared to control tumor growth", "setting": "[1]; 6 mg/kg intravenous, day 10", "result": 93, "unit": "%"}, {"measurement": "growth compared to control tumor growth", "setting": "[1]; 6 mg/kg intravenous, day 15", "result": 73, "unit": "%"}, {"measurement": "tumor size compared to control group mice", "setting": "[1]; 6 mg/kg intravenous, p<0.05", "result": "significantly smaller tumors"}, {"measurement": "tumor growth inhibition", "setting": "[1]; day 7", "result": 42, "unit": "%"}, {"measurement": "tumor growth inhibition", "setting": "[1]; day 10", "result": 7, "unit": "%"}, {"measurement": "tumor growth inhibition", "setting": "[1]; day 15", "result": 27, "unit": "%"}]}, {"molecule": "Asn^1-Thr^2-Gly^3-Asp^4-Lys^5-Phe^6-Tyr^7-Gly^8-Leu^9-Met^10-NH2 (NTGDKFYGLM-NH2; listed as Aedes aegypti) [SK1]", "values": [{"measurement": "necropsy, toxicity or tissue necrosis", "setting": "[2]; 200 μl intravenous injection of 5 μM and 10 μM", "result": "no detectable toxicity or tissue necrosis"}, {"measurement": "weight loss in study animals", "setting": "[2]; intravenous 5 μM and 10 μM, during the study period", "result": "No weight loss"}, {"measurement": "side effects", "setting": "[3]; first clinical exposure, human", "result": "no side effects were detected"}, {"measurement": "systemic symptoms", "setting": "[3]; two 100 μl injections of 5 μM", "result": "no systemic symptoms were detected"}, {"measurement": "toxicity in trial subjects", "setting": "[3]; two 100 μl injections of 5 μM", "result": "no measured or observed toxicity"}, {"measurement": "patients showing a reduction in wart size", "setting": "[3]; [7]", "result": "3 of 4"}, {"measurement": "reduction in wart size (individual patients)", "setting": "[3]; [7]", "result": "19% and 79% and 31%"}, {"measurement": "EC50", "setting": "[4]", "result": 6.58, "unit": "nM"}, {"measurement": "suppression of spleen cell proliferation", "setting": "[5]; stimulated with IL-2, antigen activated cells", "result": 39, "unit": "%"}, {"measurement": "suppression of spleen cell proliferation", "setting": "[5]; stimulated with IL-2, naïve cells", "result": 66, "unit": "%"}, {"measurement": "suppression of spleen cell proliferation", "setting": "[5]; stimulated with IL-4, antigen activated cells", "result": 27, "unit": "%"}, {"measurement": "suppression of spleen cell proliferation", "setting": "[5]; stimulated with IL-4, naïve cells", "result": 39, "unit": "%"}]}, {"molecule": "Asp^1-Met^2-His^3-Asp^4-Phe^5-Phe^6-Val^7-Gly^8-Leu^9-Met^10-NH2 (DMHDFFVGLM-NH2) [NKB]", "values": [{"measurement": "proliferative response in ASM cells", "setting": "[6]", "result": "Neither NKA nor NKB induced significant proliferative responses"}]}, {"molecule": "His^1-Lys^2-Thr^3-Asp^4-Ser^5-Phe^6-Val^7-Gly^8-Leu^9-Met^10-NH2 (HKTDSFVGLM-NH2) [NKA]", "values": [{"measurement": "proliferative response in ASM cells", "setting": "[6]", "result": "Neither NKA nor NKB induced significant proliferative responses"}, {"measurement": "ASM cell count", "setting": "[6]; highest administered concentration of 10^−4M", "result": "relatively modest increase in ASM cell count"}]}, {"molecule": "CSCC[C@H](NC(=O)[C@H](CC(C)C)NC(=O)CNC(=O)[C@H](Cc1ccc(O)cc1)NC(=O)[C@H](Cc1ccccc1)NC(=O)[C@H](CCCCN)NC(=O)[C@H](CC(=O)O)NC(=O)CNC(=O)[C@@H](NC(=O)[C@@H](N)CC(=O)O)[C@@H](C)O)C(N)=O", "note": "[Sialokinin II, Asp^1-Thr^2-Gly^3-Asp^4-Lys^5-Phe^6-Tyr^7-Gly^8-Leu^9-Met^10-NH2] (H-DTGDKFYGLM-NH2)", "values": [{"measurement": "EC50", "setting": "[4]", "result": 5.07, "unit": "nM"}]}, {"molecule": "Arg^1-Pro^2-Lys^3-Pro^4-Gln^5-Gln^6-Phe^7-Phe^8-Gly^9-Leu^10-Met^11-NH2 [Substance P]", "values": [{"measurement": "EC50", "setting": "[4]", "result": 4.94, "unit": "nM"}, {"measurement": "concentration eliciting the maximum proliferative response", "setting": "[6]; ASM cells", "result": "10^−4 M"}, {"measurement": "ASM cell number", "setting": "[6]; concentration range of 10^−14 to 10^−4M", "result": "dose-dependent increases in ASM cell number"}]}]}
